In PMC8287028 (Frontiers in Veterinary Science, 2021):
“And” between values parts separate entries of the source, which are not always exact repeats. Identical values can stand only once. Like-named read-outs stand apart in the source and are kept apart here.

Key:
healthy mixed-breed dogs [1] = assay: Serum biochemistry profile before and after apixaban; type: in vivo, dog; design: TP / Bicarbonate: unit not given beside the values; Calcium / Magnesium / Globulin / ALT / AST / GGT / T.bili / Sodium / BUN / Creatinine: unit not given here; settings: for ALT / AST / Albumin / BUN / Bicarbonate / Calcium / Creatinine / GGT / Globulin / Magnesium / Sodium / T.bili / TP / Amylase / Cholesterol / Glucose / Phosphate / Potassium / TIBC: individual dogs (Dog 1-6); for Amylase: in U/L (unit assumed); for TIBC: in µg/dL (unit assumed)
Protocol: (§1) Catheters were flushed with 0.9% saline, without heparin.
Pairwise comparisons between continuous variables were conducted with Wilcoxon matched-pairs signed rank test, while comparisons of more than two groups were conducted using the Friedman test with Dunn's post-hoc adjustment. […] Comparisons of pharmacodynamic variables between baseline values and those at discrete sampling intervals were performed using the Friedman test with Dunn's post-hoc correction for multiple comparisons. […] Alpha was set at 0.05. Statistical analyses were performed using commercial software (Prism 9, GraphPad, La Jolla, CA).

healthy mixed-breed dogs [2] = assay: Complete blood count before and after apixaban; type: in vivo, dog; design: RBC: unit not given beside the values; Neut / Lymph / Mono / Eos / Baso / HCT / MCV / MCH / MCHC: unit not given here; settings: for Baso / Eos / HCT / Hgb / Lymph / MCH / MCHC / MCV / Mono / Neut / RBC / WBC: individual dogs (Dog 1-6); for WBC: in 10^3/µL (unit assumed)
major plasma proteins = assay: Protein binding by ex vivo ultrafiltration of spiked plasma, LC/MS; type: in vitro ADME, dog
Protocol: For each dog a sample of anticoagulated platelet-poor plasma collected at baseline was centrifuged (16,000 g, 5 min, 4°C) and the supernatant filtered with a […] syringe filter. […] One aliquot was centrifuged (16,000 g, 30 min, 4°C) in a molecular exclusion device (Amicon Ultra 30k filter, Millipore-Sigma) to remove the major plasma proteins. The spiked plasma and the ultrafiltrate were then analyzed for apixaban by LC/MS as above. Protein binding (%) was determined as: [Total concentration] – [[…] Unbound concentration]/Total concentration ×100.

[3] = horses, cited from earlier work
[4] = Pharmacokinetics after intravenous apixaban, plasma concentrations by LC/MS; type: in vivo, dog; settings: dogs; for Vd: read-out: Vd (volume of distribution); for AUC: read-out: AUC (area-under-the-curve); for C0: read-out: C0 (concentration at time zero); for clearance: read-out: CL (systemic clearance) (converted); for half-life: read-out: K10 T½ (elimination half-life) (converted); for MRT: read-out: MRT (mean residence time)
Protocol: All injection durations were identical.
as §1
Analyses of plots and PK modeling were performed using compartmental methods in standard software (Phoenix, WinNonlin, Certara, St. Louis, MO). One-, 2- and 3-compartment models were fit to the plasma concentration data.

[5] = +24h after IV apixaban, in mg/dL (unit assumed)
[6] = +30h after PO apixaban, in g/dL (unit assumed)
[7] = +30h after PO apixaban, in mg/dL (unit assumed)
[8] = +30h after PO apixaban, in mmol/L (unit assumed)
[9] = both sexes, mixed-breed, dog, plasma, iv, 0.18 mg/kg, IV, mean dose 0.18 mg/kg, geometric mean
[10] = both sexes, mixed-breed, dog, plasma, iv, 0.18 mg/kg, IV, mean dose 0.18 mg/kg, mean of 6 dogs
[11] = IV, mean dose 0.18 mg/kg, individual dogs (Dog 1-6), 0.18 mg/kg

## COc1ccc(-n2nc(C(N)=O)c3c2C(=O)N(c2ccc(N4CCCCC4=O)cc2)CC3)cc1 [apixaban]
Healthy mixed-breed dogs [1]; +24h after IV apixaban
  ALT: 45 (2×) and 114 and 30 (2×) and 86
  AST: 34 and 44 and 21 and 32 (2×) and 31
  Albumin: 3.9 and 3.4 (2×) and 3.5 and 3.7 and 3.8
  BUN: 16 (2×) and 19 and 30 and 20 and 21
  Bicarbonate: 23 and 18 (2×) and 21 and 19 (2×)
  Calcium: 10.0 (2×) and 8.9 and 10.2 and 9.9 and 9.6
  Creatinine: 0.8 and 0.7 (2×) and 1 (2×) and 0.9
  GGT: 2 (3×) and 3 (2×) and 6
  Globulin: 2.3 and 2.1 (2×) and 2.4 and 2.0 (2×)
  Magnesium: 1.8 (2×) and 1.6 and 1.7 (3×)
  Sodium: 147 and 146 (3×) and 149 and 148
  T.bili: 0.0 (4×) and 0.1 (2×)
  TP: 6.2 and 5.5 and 5.8 (2×) and 5.6 and 5.7
  Amylase: 467 and 362 and 561 and 514 and 451 and 707
  TIBC: 391 and 352 and 385 and 345 and 313 and 356
Healthy mixed-breed dogs [1]; [5]
  Cholesterol: 174 and 180 and 226 and 129 and 127 and 173
  Glucose: 58 and 39 and 93 and 100 and 85 and 52
  Phosphate: 3.9 and 3.7 and 3.3 and 4.4 and 3.6 and 4.1
Healthy mixed-breed dogs [1]; +24h after IV apixaban, in mmol/L (unit assumed)
  Potassium: 4.5 and 4.2 and 4.4 and 4.3
Healthy mixed-breed dogs [1]; +30h after PO apixaban
  ALT: 26 (2×) and 33 and 36 and 39 and 35
  AST: 34 and 22 and 32 (2×) and 45 and 33
  Albumin: 3.9 and 3.6 (2×) and 3.4 and 3.5 (2×)
  BUN: 19 (2×) and 12 and 10 and 18 and 24
  Calcium: 10.2 (2×) and 9.7 (3×) and 9.8
  Creatinine: 0.9 and 0.8 (2×) and 0.6 and 0.7 and 1
  GGT: 0 (2×) and 4 (2×) and 6 (2×)
  Globulin: 2.1 (3×) and 2.5 and 2 and 2.3
  Magnesium: 1.7 (5×) and 1.8
  Phosphate: 2.8 and 3.9 (2×) and 3.7 (2×) and 3.8
  Sodium: 147 (4×) and 150 and 146
  T.bili: 0.1 (4×) and 0.0 (2×)
  Amylase: 469 and 325 and 515 and 494 and 353 and 638
  TIBC: 391 and 331 and 372 and 288 and 336 and 329
Healthy mixed-breed dogs [1]; [6]
  TP: 6 and 5.7 and 6.1 and 5.4 and 5.8 and 5.6
Healthy mixed-breed dogs [1]; [7]
  Cholesterol: 198 and 192 and 244 and 106 and 162 and 186
  Glucose: 77 and 93 and 76 and 78 and 102 and 87
Healthy mixed-breed dogs [1]; [8]
  Bicarbonate: 22 and 20 and 17 and 18 and 14 and 19
  Potassium: 4.3 and 4.5 and 3.9 and 4.9 and 4.6 and 4.8
Healthy mixed-breed dogs [1]; IV
  chloride and GGT, baseline versus 24 h post-injection: statistically significant reductions
Healthy mixed-breed dogs [1]; PO, baseline versus 30 h post-dose
  biochemical parameters: no changes
Healthy mixed-breed dogs [2]; +24h after IV apixaban
  Baso: 0.1 (2×) and 0.0 (4×)
  Eos: 0.3 (2×) and 0.4 (2×) and 0.7 (2×)
  HCT: 53 and 52 (2×) and 54 (2×) and 57
  Hgb: 17.7 and 17.2 and 16.8 and 17.5 (2×) and 18.3
  Lymph: 2.3 and 2 (2×) and 3.3 and 1.6 and 3.7
  MCH: 25 (3×) and 23 and 24 (2×)
  MCHC: 33 (2×) and 32 (4×)
  MCV: 73 and 75 and 71 and 74 and 76 (2×)
  Mono: 0.3 (2×) and 0.6 and 0.5 (3×)
  Neut: 4.1 and 5.8 and 5.6 (2×) and 5.1 and 8.0
  RBC: 7.2 (2×) and 6.9 and 7.3 (2×) and 7.4
  WBC: 7.1 and 8.8 and 9.6 and 8.9 and 7.6 and 13
Healthy mixed-breed dogs [2]; +30h after PO apixaban
  Baso: 0 (3×) and 0.1 and 0.0 (2×)
  Eos: 0.3 (2×) and 0.2 (2×) and 0.4 and 0.6
  HCT: 56 and 55 and 52 (2×) and 46 and 50
  Lymph: 3.2 and 2 (2×) and 1.6 and 0.8 and 3.6
  MCH: 24 (2×) and 25 (2×) and 23 (2×)
  MCHC: 33 (4×) and 32 (2×)
  MCV: 72 (2×) and 76 and 70 and 75 and 74
  Mono: 0.5 (4×) and 0.4 and 0.3
  Neut: 6.1 (2×) and 5.4 and 7.9 and 5.7 and 7.3
  WBC: 10.1 and 8.3 and 10.8 and 8 and 7.6 and 12.1
Healthy mixed-breed dogs [2]; +30h after PO apixaban, in 10^6/µL (unit assumed)
  RBC: 7.8 and 7.3 and 7.4 and 6.2 and 7 and 7.1
Healthy mixed-breed dogs [2]; [6]
  Hgb: 18.6 and 18 and 17 and 15.1 and 16.2 and 16.9
Healthy mixed-breed dogs [2]; IV, baseline versus 24 h
  CBC parameters: No changes
Healthy mixed-breed dogs [2]; PO, baseline versus 30 h
  mean corpuscular hemoglobin concentration: significant reduction
Major plasma proteins; both sexes, mixed-breed, platelet-poor plasma, dog plasma spiked at 500 ng/ml, ultrafiltration, mean of 6 dogs, using 7 ng/ml for the deproteinated samples
  fraction unbound at 500 ng/ml: 0.014
Major plasma proteins; ultrafiltrate of dog plasma spiked at 500 ng/ml, all samples
  apixaban concentration in deproteinated samples: < 7 ng/mL
[3]; oral
  plasma concentrations after oral administration: did not lead to quantifiable apixaban concentrations in plasma
[3]; single injection
  time by which concentrations declined below the lower limit of quantitation: ≤ 8 h
[3]
  half-life: 1.3 h
  protein binding: highly protein bound
[4]; both sexes, mixed-breed, dog, in vivo, iv, 0.18 mg/kg, IV, mean dose 0.18 mg/kg, individual dogs (Dog 1-6)
  Vd: 0.163 L/kg
[4]; [9]
  AUC: 5.62 µg·h/mL
  C0: 1 µg/mL
  clearance: 0.0312 L/h/kg
  half-life: 3.9 h
  MRT: 5.6 h
  Vd: 0.175 L/kg
[4]; both sexes, mixed-breed, dog, plasma, iv, 0.18 mg/kg, IV, mean dose 0.18 mg/kg, individual dogs (Dog 1-6)
  C0: 1.21 µg/mL
[4]; [10]
  AUC: 6.03 µg·h/mL
  C0: 1.01 µg/mL
  clearance: 0.0338 L/h/kg
  half-life: ~4.1 h
  MRT: 6 h
  Vd: 0.177 L/kg
[4]; both sexes, mixed-breed, dog, plasma, IV 0.18 mg/kg, at 24 h, read-out: mean residual plasma concentration
  concentration at 24 h: 0.017 µg/mL
[4]; both sexes, mixed-breed, in vivo, IV, mean dose 0.18 mg/kg, one-compartment model, individual dogs (Dog 1-6)
  AUC: 8.14 µg·h/mL
[4]; IV, mean dose 0.18 mg/kg, one-compartment model, individual dogs (Dog 1-6), 0.18 mg/kg
  AUC (area-under-the-curve): 5,726.9 h*ng/ml and 4,802.6 h*ng/ml and 7,639.4 h*ng/ml and 7,330.9 h*ng/ml and 2,516.3 h*ng/ml
[4]; IV, mean dose 0.18 mg/kg, geometric mean
  K10 (first order elimination rate): 0.2 h⁻¹
[4]; [11]
  C0 (concentration at time zero): 853.9 ng/ml and 1,108.0 ng/ml and 958.3 ng/ml and 1,005.0 ng/ml and 913.4 ng/ml
  CL (systemic clearance): 0.0344 L/h/kg and 0.041 L/h/kg and 0.0234 L/h/kg and 0.022 L/h/kg and 0.0209 L/h/kg and 0.0608 L/h/kg
  K10 (first order elimination rate): 0.2 1/h (3×) and 0.1 1/h (2×) and 0.4 1/h
  K10 T½ (elimination half-life): 3.3 h and 4.8 h and 5.9 h and 5.1 h and 1.9 h
[4]; IV, mean dose 0.18 mg/kg, mean of 6 dogs
  K10 (first order elimination rate): 0.2 h⁻¹
